# Source: US20060040827A1, “Environmentally safe herbicide, fungicide, bactericide and adjuvant composition” (priority 2004, published 2006)
# System: grass and broad leaf
# Assay: Grass and broad leaf kill, cocktails compared against glyphosate (5%)
# Format: in vivo
# From the text: This cocktail can be mixed with water prior to use at 1:5 parts of water to 1:200 parts of water. The higher the concentration of the cocktail the faster the kill of the weeds. Cocktail I was compared against glyphosate (5%).
# Compared against Glyphosate at 5%:
# Same as Cocktail I but add concentrated glyphosate to yield 1% glyphosate in mix.
compound,measurement,setting,value
"O=C(O)CNCP(=O)(O)O [Glyphosate, N-(phosphonomethyl) glycine]","Grass and broad leaf kill, 24 hours","24 hours, Cocktail I vs glyphosate at 5%",10%
same,"Broad leaf and grass kill, 24 hours","24 hours, Cocktail II vs glyphosate at 5%",10%
same,"Broad leaf and grass kill, 24 hours","24 hours, Cocktail III (1% glyphosate in mix) vs glyphosate at 5%",10%
same,"Broad leaf and grass kill, 2 days",Cocktail II vs glyphosate at 5%,20%
same,"Broad leaf and grass kill, 2 days",Cocktail III (1% glyphosate in mix) vs glyphosate at 5%,20%
same,"Grass and broad leaf kill, 7 days","7 days, Cocktail I vs glyphosate at 5%",100%
same,"Broad leaf and grass kill, 7 days","7 days, Cocktail II vs glyphosate at 5%",100%
same,"Broad leaf and grass kill, 7 days","7 days, Cocktail III (1% glyphosate in mix) vs glyphosate at 5%",100%
